The nature of data set [1]: in vitro. Particulars: human, H727 cells.
Experimental: (§1) Cells tested (H727 and BON) were harvested by trypsinization and plated at a cell density of 3,000 cells/well of each microtiter plate. Cells were grown for 4 hrs at 37° C., with 5% CO2 in a humidified incubator to allow cell attachment to occur before compound addition. […] 10 μl of each compound stock was added to duplicate microtiter plates for each cell line. The final concentration of DMSO in all wells was 1%. To test 200 μM, 2% DMSO was added to each well. Data was compared to the effect of 2% DMSO. All compounds were tested in duplicate. Cells were incubated with the test compounds for 72 hrs before reading the assay. Then processing and calculation were performed according to manufacturer's directions for Cell Titer Glo Assay (Promega, Madison, Wis.).
The nature of data set [2]: in vitro. Particulars: human, BON cells.
Experimental: as §1
For another data set, the system named is Chromogranin A. The data set is described as follows: Western analysis of chromogranin A, BON-raf cells treated with estradiol. The format is cell-based, human. On the procedure: Usually, carcinoid tumors secrete high levels of both chromogranin A and serotonin due to disregulated hormone production. Similarly, BON cells treated with control or estradiol, and BON-raf cells treated with control had high levels of the NE marker chromogranin A as determined by Western analysis. […] In addition, BON and BON-raf cells were tested for serotonin secretion by ELISA after treatment with control or estradiol.
Cell culture. Human pulmonary carcinoid cells (NCI-H727) were obtained from American Type Culture Collection (Manassas, Va.) and human pancreatic carcinoid tumor cells, BON a generous gift of Drs. Evers and Townsend (Parekh et al., 1994), were maintained in RPMI 1640 and D-MEM-F12 media (Life Technologies, Rockville, Md.) respectively supplemented with 10% Fetal Bovine Serum (Sigma, St. Louis, Mo.), 100 IU/ml penicillin and 100 μg/ml streptomycin (Life Technologies) in a humidified atmosphere of 5% CO2 in air at 37° C. The maintenance of BON-raf cells and the activation of Raf-1 were followed as described previously (Sippel et al., 2003; Sippel and Chen, 2002; McMahon, 2001).
Western blot analysis. Cellular extracts were prepared and quantified by BCA protein assay kit (Pierce, Rockford, Ill.) as previously described (Sippel et al., 2003). 30-50 μg of denatured proteins from each sample underwent electrophoresis on a SDS-polyacrylamide gel and transferred to a nitrocellulose membranes (Schleicher and Schuell, Keene, N.H.). Membranes were blocked for 1 hr in milk solution (1×PBS, 5% non-fat dry milk, 0.05% Tween-20) and then incubated at 4° C. overnight with primary antibodies. The following primary antibody dilutions were used: phospho-ERK 1/2 (1:1,000); phospho-MEK (1:1,000); phospho-Raf-1 (Serine338) (1:1,000); p21 and p18, (1:1,000); (Cell Signal Technology, Beverly, Mass.), Chromogranin A (1:2,000; Zymed Laboratories, San Francisco, Calif.); MASH-1 (1:1000, BD Pharmingen) and G3PDH (1:10,000; Trevigen, Gaithersburg, Md.). After primary antibody incubation, membranes were washed 3×5 min in PBS-T wash buffer (1×PBS, 0.05% Tween 20). […]

Data set [3] deals with c-Raf as well as MEK and ERK. Particulars: human monocytic THP-1 cells; cited from earlier work.

SMILES strings stand for the structures.

This is an account of results in patent US20060025485A1, “Hydroxybenazamide compounds for treatment of cancer” (priority 2004, published 2006).

`COc1cccc2c1C(=O)c1c(O)c3c(c(O)c1C2=O)C[C@@](O)(C(=O)CO)C[C@@H]3O[C@H]1C[C@H](N)[C@H](O)[C@H](C)O1` [Doxorubicin]: the IC50 at 72 h came out at 1100 nM in the data set “in vitro [1]” and 1400 nM in the data set “in vitro [2]”.

Take `C[C@]12CC[C@@H]3c4ccc(O)cc4CC[C@H]3[C@@H]1CC[C@@H]2O` [Estradiol]: the “reduction of chromogranin A levels” value in the data set on Chromogranin A (2 days) came out at 31%; with Chromogranin A (4 days), 68%; with Chromogranin A (6 days), 50%.

Regarding `COc1nccc(-c2c(-c3ccc(F)cc3)ncn2C2CCC(O)CC2)n1` (stereo not drawn) [SB239063], the “activation of c-Raf, MEK and ERK” value in data set [3] was “activates c-Raf as well as MEK and ERK”.

A word on the IC50: it is the concentration at which inhibition is half-maximal. A lower IC50 goes with inhibition by little substance.
